According to EP1268487B1, “TRICYCLIC PROTEIN KINASE INHIBITORS” (Wyeth, priority 2000, dated 2001):

How the values were obtained:
Raf-1 (c-Raf) = molecular target: T1, Raf-1 (c-Raf) (Homo sapiens, UniProt P04049); assay: Raf-1 kinase cascade assay; format: biochemical
T1 construct: Sf9 insect cell lysate containing full length 6his-tagged recombinant human c-Raf; 6his; host or cells: c-Raf: Sf9 insect cell lysate; MEK1 and MAPK: E. coli
Protocol: (Specific Activity: ∼200U/ml). Human Non-active Mek-1-GST and human GST-MAP kinase (recombinant proteins produced in E. coli ). • Stock Solutions c-Raf Assay: • 1. Assay Dilution Buffer (ADB): 20mM MOPS, pH 7.2, 25mM β-glycerol phosphate, 5mM EGTA, 1mM sodium orthovanadate, 1mM dithiothreitol. • 2. Magnesium/ATP Cocktail: 500µM cold ATP and 75 mM magnesium chloride in ADB. • 4. Active Kinase: Human Active c-Raf: Use at 0.4U per assay point. • 5. Non-active GST-MEK1: Use at 0.1µg per assay point. • 6. Non-active GST-p42 MAP Kinase: Use at 1.0 µg per assay point. • Stock Solutions ELISA: • 1. TBST - Tris (50 mM, pH 7.5), NaCl ( 150 mM), Tween-20 (0.05 %) • 2. Superblock (Pierce) • 3. Anti-GST Ab (Pharmacia) • 4. Anti-Phospho MAPK (Sigma) • 5. Anti-Mouse Ab / Europium conjugate (Wallac) • Assay Procedure: • First Stage: c-Raf Dependent Activation of GST-MEK and GST-MAPK • 1. Add […] of ADB per assay (i.e. per well of a 96 well plate) • 2. Add 10 ml of 0.5 mM cold ATP and 75 mM magnesium chloride in ADB. • 3. Add 2 ml of c-Raf (0.4U/assay), in conjunction with 1.6ml non-active MEK1 ([…]). • 4. Add 4 ml of non-active GST-p42 MAP Kinase ([…]). • 5. Incubate for 60 minutes at 30°C in a shaking incubator. • 6. Transfer this mixture to an anti-GST Ab coated 96 well plate (Nunc Immunosorb plates coated o/n with a-GST, then blocked with Pierce Superblock). • 7. Incubate for 60 minutes at 30°C in a shaking incubator • 8. Wash 3X with TBST, add Anti-Phospho MAPK (Sigma) (1:3000) • 9. Incubate for 60 minutes at 30°C in a shaking incubator • 10. Wash 3X with TBST, add Anti-Mouse Ab / Europium conjugate (Wallac) (1:500) • 11. Incubate for 60 minutes at 30°C in a shaking incubator • 12. Wash 3X with TBST, Read plates in Wallac Victor model Plate Reader. • 13. Collect data analyze in Excel for single point and IC50 determinations.
Typically Raf-1 assay is run at compound concentrations from 10 µM to 30 nM in half log dilutions. (% inhibition is determined for each compound concentration).

c-Met = molecular target: T2, c-Met (Homo sapiens, UniProt P08581); assay: DELFIA assay for c-Met receptor kinase inhibitors; format: biochemical
T2 construct: The cytoplasmic domain of c-Met was generated by reverse transcriptase-polymerase chain reaction; His tag (from pFastBac-HTc vector; purified on Ni-NTA/Talon); made in house; host or cells: Sf9 insect cells (baculovirus)
Protocol: The c-Met kinase assay was performed as a DELFIA (dissociation enchanced lanthanide fluorometric immunoassay), an ELISA-like protocol based upon time-resolved fluorometry as described previously [Braunwalder, A. F., Yarwood, D.R., Sills, M.A., and Lipson, K.E., Anal. Biochem. 238, 159-164 (1996)]. The protocol was adopted for the screening of inhibitors of the kinase activity of recombinant c-Met. [Loganzo, F., and. Hardy, C., American Biotechnology Laboratory 16(13), 26-28 (1998)]. The cytoplasmic domain of c-Met was generated by reverse transcriptase-polymerase chain reaction using RNA isolated from human mammary epithelial cells as template, cloned into the pFastBac-HTc vector (Life Technologies) and protein expressed in Sf9 insect cells by baculovirus infection. Protein was purified by imidazole elution from Ni-NTA resin (Invitrogen, Carlsbad, CA) or Talon resin (Clontech, Palo Alto, CA). Various conditions were evaluated for the kinase screening protocol and screening was accomplished with the following method. Polystyrene Maxisorp plates (Nunc) were pre-coated for 1 hour to overnight at room temperature with 5 µg/ml poly(Glu4-Tyr) diluted in Tris-buffered saline (TBS). Plates were washed 3X with TBS. c-Met protein preparation was diluted 1:80 into 0.1% BSA/ 4 mM HEPES. A master mix was prepared consisting of: 1 volume of diluted c-Met, 1 volume of 5X buffer (20 mM HEPES, pH 7.4; 2 mM MnCl2; 100 µM Na3VO4; 1 mM DTT), 0.9 volume of water. Master mix (29 µl) was added to the wells of peptide-coated microtiter plates. For assays where c-Met autophosphorylation was evaluated, plates were uncoated and c-Met was diluted into 4 mM HEPES at 1:40 without BSA. Compounds (1 µl) at various dilutions (1 mM to 0.1 µM) prepared in DMSO were added and mixed well with an automatic piptettor. After incubation 20 minutes at room temperature, the reaction was initiated with 20 µl of 62.5 µM ATP/ 50 mM MgCl2 (final 25 µM ATP/ 20 mM MgCl2 in assay). Reactions were incubated 45 minutes at room temperature. Plates were then washed 3X with 100 µl each of DELFIA wash buffer (Wallac). Antibody binding was performed by adding 75 µl of Europium-conjugated anti-phosphotyrosine diluted 1:2000 in Assay Buffer (Wallac) for 1 hour at room temperature. Plates were washed 3X with DELFIA wash buffer. Detection was done by addition of 100 µl of Enhancement Solution (Wallac). After 30 minutes, plates were read in a Wallac VICTOR-2 time-resolved fluorometer. Inhibition data was reported as europium counts for compound treated wells normalized to control counts. IC50 values were obtained by using log doses of compound and calculated using Data Analysis Toolbox software, version 1.0.2 (MDL Information Systems, Inc.).

T1 sequence (P04049 whole entry): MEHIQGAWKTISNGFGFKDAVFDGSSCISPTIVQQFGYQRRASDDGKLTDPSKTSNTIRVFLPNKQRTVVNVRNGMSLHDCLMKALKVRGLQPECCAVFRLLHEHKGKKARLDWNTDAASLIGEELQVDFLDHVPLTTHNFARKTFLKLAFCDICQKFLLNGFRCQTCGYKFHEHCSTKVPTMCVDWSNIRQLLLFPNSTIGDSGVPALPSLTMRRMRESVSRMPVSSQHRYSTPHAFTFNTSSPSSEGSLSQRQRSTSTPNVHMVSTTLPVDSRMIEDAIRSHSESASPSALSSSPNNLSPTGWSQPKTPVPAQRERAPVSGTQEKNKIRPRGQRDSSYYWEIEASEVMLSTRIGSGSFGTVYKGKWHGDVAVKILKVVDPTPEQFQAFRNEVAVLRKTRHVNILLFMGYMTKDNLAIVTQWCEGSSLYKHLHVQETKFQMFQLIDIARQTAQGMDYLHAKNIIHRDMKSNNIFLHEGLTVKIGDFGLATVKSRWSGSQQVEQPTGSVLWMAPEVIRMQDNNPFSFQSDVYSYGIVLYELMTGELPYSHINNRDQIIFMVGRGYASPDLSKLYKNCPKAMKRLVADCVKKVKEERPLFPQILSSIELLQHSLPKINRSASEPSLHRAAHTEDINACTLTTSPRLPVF
T2 sequence (P08581 956-1390 limits assumed): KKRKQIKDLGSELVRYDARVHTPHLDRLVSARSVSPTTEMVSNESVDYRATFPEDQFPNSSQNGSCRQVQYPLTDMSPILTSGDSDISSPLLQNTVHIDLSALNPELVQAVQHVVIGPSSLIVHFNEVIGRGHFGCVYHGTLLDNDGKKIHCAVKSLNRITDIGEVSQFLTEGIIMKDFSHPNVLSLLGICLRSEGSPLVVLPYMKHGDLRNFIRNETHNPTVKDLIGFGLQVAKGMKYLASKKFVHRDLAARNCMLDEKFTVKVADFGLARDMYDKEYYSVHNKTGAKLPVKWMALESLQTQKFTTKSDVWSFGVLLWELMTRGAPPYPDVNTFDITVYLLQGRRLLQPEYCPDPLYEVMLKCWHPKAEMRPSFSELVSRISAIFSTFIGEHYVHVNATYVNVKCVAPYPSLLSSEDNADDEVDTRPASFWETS

Compound: N#Cc1cnc2cc3c(cc2c1Nc1ccc(F)c(Cl)c1)NCCO3 [Example 7, 9-(3-Chloro-4-fluoroanilino)-2,3-dihydro-1H-[1,4]oxazino[3,2-g]quinoline-8-carbonitrile]
- inhibition at 0.03 µg/mL (Raf-1 (c-Raf); dose 0.03 µg/mL): -5%
- inhibition at 0.1 µg/mL (Raf-1 (c-Raf); dose 0.1 µg/mL): 2%
- inhibition at 0.3 µg/mL (Raf-1 (c-Raf); dose 0.3 µg/mL): 8%
- inhibition at 1 µg/mL (Raf-1 (c-Raf); dose 1.0 µg/mL): 16%
- inhibition at 3 µg/mL (Raf-1 (c-Raf); dose 3.0 µg/mL): 68%
- inhibition at 10 µg/mL (Raf-1 (c-Raf); dose 10.0 µg/mL): 90%
- inhibition at 10 µg/mL (c-Met): 80%
